Reference: US20220370310A1, “SURFACE-TREATED MAGNESIUM OR CALCIUM ION-CONTAINING MATERIALS AS WHITE PIGMENTS IN ORAL CARE COMPOSITIONS” (CHILDREN'S MEDICAL CENTER CORPORATION, priority 2020, published 2022)

Assays:
[1] = system: antigen-specific T cell responses; assay: In vivo OVA immunization and T cell re-stimulation; design: species or system C57BL/6J mice
Method: Flow cytometry: After FcR blockade, 7 days BMDCs were resuspended in MACS buffer (PBS with 1% FCS and 2 mM EDTA), and stained with the following fluorescently conjugated antibodies (BioLegend): anti-CD11c (clone N418), anti-I-A/I-E (clone M5/114.15.2), anti-CD40 (clone 3/23), anti-CD80(16-10A1), anti-CD69 clone (H1.2F3), anti-H-2Kb (clone AF6-88.5). Single cell suspension from the tumor or draining inguinal lymph nodes, or skin inguinal adipose tissue were resuspended in MACS buffer (PBS with 1% FCS and 2 mM EDTA), and stained with the following fluorescently conjugated antibodies (BioLegend): anti-CD8a (clone 53-6.7), anti-CD4 (clone RM4-5), anti-CD44 (clone IM7), anti-CD62L (MEL-14), anti-CD3 (17A2), anti-CD103 (2E7), anti-CD69 clone (H1.2F3), anti-CD45 (A20 or 30F11). LIVE/DEAD™ Fixable Violet Dead Cell Stain Kit (Molecular probes) was used to determine the viability of cells, and cells were stained for 20 minutes in PBS at 4° C. Draining inguinal lymph nodes T cells were stained with OVA-peptide tetramers at room temperature for 1 h. PE-conjugated H2K(b) SIINFEKL (OVA 257-264; SEQ ID NO: 1) and APC conjugated I-A(b) AAHAEINEA (OVA 329-337; SEQ ID NO: 2) were used. I-A(b) and H2K(b) associated with CLIP peptides were used as isotype controls. […] Data were analyzed using FlowJo software.
Intracellular staining: For intracellular cytokine staining, cells were stimulated with 50 ng/ml phorbol 12-myristate 13-acetate (PMA) and 500 ng/ml ionomycin (Sigma-Aldrich) in the presence of GolgiStop (BD) and brefeldin A for 4-5 h. […] Data were analyzed using FlowJo software.
In vivo immunization and T cell re-stimulation: Female C57BL/6J mice aged 8 weeks, were immunized subcutaneously (s.c.) on the left lower back with either 150 μg/mouse endotoxin-free OVA plus 10 μg/mouse LPS emulsified in incomplete Freund's adjuvant, or with 150 μg/mouse endotoxin-free OVA, plus 65 μg/mouse oxPAPC or PGPC, plus 10 μg/mouse LPS emulsified in incomplete Freund's adjuvant. […] Secretion of IFNγ, IL-10 and IL-2 were measured by ELISA 5 days later. […]

B16OVA cells = assay: Immunization prior to tumor inoculation, B16OVA challenge; type: in vivo, C57BL/6 mice; conditions: s.c. immunization with B16OVA WTL, challenge 15 days later
Method: Whole tumor cell lysates preparation: To prepare whole tumor cell lysates (WTL) for immunization, tumor cell lines were cultured for 4-5 days in complete DMEM. When cells became confluent, supernatants were collected, and the cells were washed and dissociated using trypsin-EDTA (Gibco). Tumor cell lines were then resuspended at 5×10^6 cells/ml in their collected culture supernatant, then lysed by 3 cycles of freeze-thawing.
In vivo immunization and tumor challenges: For immunization prior tumor inoculation, C57BL/6 mice were injected subcutaneously (s.c.) into the right flank with PBS (unimmunized), WTL alone or with LPS, or WTL plus LPS and OxPAPC or PGPC all emulsified in incomplete Freud's adjuvant (IFA). In some experiments, LPS is replaced by MPLA. […] Tumor-free mice were re-challenged s.c. into the upper back with a lethal dose of 5×10^5 viable B16OVA or B16F-10 cells, or 1×10^6 of viable MC38-OVA cells as indicated.
Tumor Infiltration: To assess the frequency of tumor-infiltrating lymphocytes (TIL) in immunized mice, tumors were harvested when their size reached 1.8-2 cm. Tumors were dissociated using the tumor Dissociation Kit (Milteny Biotec) and the gentleMACS dissociator following the manufacturer's protocol. […] CD45^+ cells were positively selected using CD45 microbeads (Milteny Biotec), and T cell infiltration was assessed by flow cytometry. […]

OT-I and OT-II T cells = assay: OT-I and OT-II in vitro T-cell stimulation; type: cell-based, mouse; conditions: OVA-loaded BMDCs pretreated with stimulus, FIG. 1F
Method: OT-I and OT-II in vitro T-cell stimulation: Splenic CD8+ and CD4^+ T cells were sorted from OT-I and OT-II mice by magnetic cell sorting with anti-CD8 beads or anti-CD4 beads respectively (Miltenyi Biotech). Sorted T cells were then seeded in 96-well plates at a concentration of 100.000 cells per well in the presence of either 20.000 or 10.000 DCs (5:1 or 10:1 ratio) that were pretreated with either LPS (activation stimuli) or LPS+PGPC (hyperactivation stimuli) or LPS+Alum (pyroptotic stimuli) and pulsed (or not) with OVA protein or SIINFEKL (SEQ ID NO: 1) peptide at 100 μg/ml for 2 hours. 5 days post culture, supernatants were collected and clarified by centrifugation for short-term storage at −20° C. and cytokine measurement by ELISA.
Intracellular staining: For intracellular cytokine staining, cells were stimulated with 50 ng/ml phorbol 12-myristate 13-acetate (PMA) and 500 ng/ml ionomycin (Sigma-Aldrich) in the presence of GolgiStop (BD) and brefeldin A for 4-5 h. Cells were then washed twice with PBS, and stained with LIVE/DEAD™ Fixable violet or green Dead Cell Stain Kit (Molecular probes) in PBS for 20 min at 4° C. Cells were washed with MACS buffer, and stained for appropriate surface markers for 20 min at 4° C. […] Data were analyzed using FlowJo software.

BMDCs = conditions: prior work (Zanoni et al., 2016); cited from earlier work

Molecule | effector and memory T cell generation in dLN ([1]; 7 and 40 days post-immunization with OVA (+LPS), CD44/CD62L flow cytometry) | antigen-specific tetramer+IFNγ+ T cell responses ([1]; WT mice, 7 days post immunization with OVA, re-stimulated 7 days with OVA-loaded BMDC) | protection against B16OVA tumor challenge (B16OVA cells) | TH1/TH2 phenotype of the T cell response ([1]; immunization with OVA) | IL-10 and IL-13 release by OT-II T cells (OT-I and OT-II T cells) | TNFα and IL-1β release by LPS-activated BMDCs (BMDCs)
CCCCCCCCCCCCCCCC(=O)OC[C@H](COP(=O)([O-])OCC[N+](C)(C)C)OC(=O)CCCC(=O)O [PGPC, [(2R)-2-(4-carboxybutanoyloxy)-3-hexadecanoyloxypropyl] 2-(trimethylazaniumyl)ethyl phosphate] | enhance the magnitude of effector and memory T cell generation | highest frequency of tetramer+IFNγ+ responses | confers optimal protection | – | – | –
lipopolysaccharide [LPS] | – | – | – | mixed TH1 and TH2 phenotype | large amounts of IL-10, and IL-13 | release TNFα but not IL-1β
